Laboratory results as given in ChEMBL document CHEMBL3301361, “Experimental in vitro DMPK and physicochemical data on a set of publicly disclosed compounds”.
Converted amounts (≈) assume the structure as drawn.

Assays:
[1] = physchem
[2] = in vitro; conditions: human, hepatocytes
[3] = in vitro; conditions: human
[4] = in vitro; conditions: hepatocytes
[5] = physchem; conditions: pH 7.4 buffer
[6] = physchem; conditions: octan-1-ol/water
[7] = in vitro; conditions: SD, HW or BN, rat, plasma
[8] = in vitro; conditions: human, plasma

Compound	pKa [1]	hepatocyte CLint [2] [µL/min/1e6 cells]	microsomal CLint ([3]; liver microsomes) [µL/min/mg]	hepatocyte CLint [4] [µL/min/1e6 cells]	solubility thermodynamic [5] [µM]	logD ([6]; pH 7.4, LogD7.4)	fraction unbound at 5 h [7]	fraction unbound at 5 h ([8]; PPB)	microsomal CLint ([3]; microsomes) [µL/min/mg]	fraction unbound at 5 h [8]	logD ([6]; pH 7.4)
CCOC(=O)N1CCC(Nc2ccccn2)CC1	6.6										
c1ccc(SCc2ccccn2)cc1	3.8										
O=C(O[C@H]1C[N+]2(CCCOc3ccccc3)CCC1CC2)C(O)(c1cccs1)c1cccs1		64	140	80	339						
Cc1ccccc1-n1c(Cn2nc(-c3ccc(O)c(F)c3)c3c(N)ncnc32)nc2cccc(C)c2c1=O		39.8		44.7	25.1 (≈ 12.7 µg/mL)	3.55	0.0313	0.02			
CN1CCN(c2nc3ccccc3cc2Cn2nc(-c3ccc4nc(N)sc4c3)c3c(N)ncnc32)CC1		7.59	72	81	100 (≈ 52.3 µg/mL)	3.09					
CCOC(=O)N1CCC(Nc2cc(Cl)ccn2)CC1	5.3										
c1ccc(CSc2nc3ccccc3[nH]2)cc1	4.2										
O=C(CO)N1CCC(c2[nH]nc(-c3ccc(Cl)cc3F)c2-c2ccncn2)CC1		< 3		< 3	7.8 (≈ 3.24 µg/mL)	1.79	0.324	0.253	< 3		
C[C@H]1CN(Cc2cc(Cl)ccc2OCC(=O)O)CCN1C(=O)Cc1ccc(F)cc1		< 3		< 3			0.0928		< 3	0.0287	
C[C@H](Oc1ccc(Cl)cc1CN1CCN(C(=O)Cc2ccc(Cl)cc2)[C@@H](C)C1)C(=O)O		4.7	< 3	< 3						0.0256	
NC(=O)NC(=O)C(Nc1ccc2c(c1)CCC2)c1ccccc1 (stereo not drawn)		13.8	27.5	55			0.0581			0.03	3.3
O=C(O)/C=C/c1cccnc1	4.4										
O=c1[nH]c2c(O)ccc([C@@H](O)CNCCSCCCNCCc3ccccc3)c2s1		< 3	5	9	1150 (≈ 514 µg/mL)	0.12					
Cc1nn(-c2ccc(F)cc2)c(NS(=O)(=O)c2ccc(C#N)cc2)c1C(=O)N[C@@H](C)C(C)(C)C		< 3		6		0.45	0.0801	0.0437			
Cc1cc(F)ccc1-n1nc(C(F)(F)F)cc1-c1ccc2c(c1)NC(=O)CO2		10.7	14.4	28.2			0.19				
CC(C)(C)NS(=O)(=O)c1cncc(-c2ccc3nc(NC(=O)NCC(=O)N4CCCC4)nn3c2)c1		4.79		< 3	6.6 (≈ 3.3 µg/mL)	1.37	0.232	0.329	5		
CC(C)(C)NS(=O)(=O)c1cncc(-c2ccc3nc(NC(=O)NCC(=O)N4CCOCC4)nn3c2)c1		3.39	5	5	53.7 (≈ 27.7 µg/mL)	0.96	0.535				
O=C1COC2(CCN(S(=O)(=O)c3ccc(-c4ccc5cnccc5c4)cc3)CC2)CN1C1CC1		> 150	115	> 150	2.2 (≈ 1.05 µg/mL)	3.32		0.0018			
CCc1nc2c(C)cc(C)nc2[nH]1	5.5										

Compound	pKa [1]	hepatocyte CLint [2] [µL/min/1e6 cells]	microsomal CLint ([3]; liver microsomes) [µL/min/mg]	hepatocyte CLint [4] [µL/min/1e6 cells]	solubility thermodynamic [5] [µM]	logD ([6]; pH 7.4, LogD7.4)	fraction unbound at 5 h [7]	fraction unbound at 5 h ([8]; PPB)	microsomal CLint ([3]; microsomes) [µL/min/mg]	fraction unbound at 5 h [8]	logD ([6]; pH 7.4)
COc1cccc2c1c(NS(=O)(=O)c1ccc(Cl)s1)nn2Cc1cccc(CNC(=O)[C@H]2COCCN2)c1		16		28			0.0052	0.0156	58.5		
COc1cccc2c1c(NS(=O)(=O)c1ccc(Cl)s1)nn2Cc1cccc(CNC(=O)[C@@H]2COCCN2)c1		20		26	27.5 (≈ 15.8 µg/mL)	1.61	0.0156	0.016	40.5		
O=C(O)C[C@H]1CC[C@H](c2ccc(-c3ccc(Nc4ccc(C(F)(F)F)nc4)cn3)cc2)CC1		< 3	< 3	11.5	1.1 (≈ 0.501 µg/mL)	3.8					
O=C(c1ccccc1)N1CCN(Cc2ccccc2)CC1	6.2										
O=C(N[C@H](Cc1ccc(Cl)cc1)C(=O)N1CCC(Cn2cncn2)(C2CCCCC2)CC1)[C@H]1Cc2ccccc2CN1		27.5		40.7			0.0052	0.007			
c1ccc(CSc2nc3ccccc3o2)nc1	4.3										
O=c1c2sccc2n(CC2COc3ccccc3O2)c(=O)n1O (stereo not drawn)		135	< 3	14.8	120 (≈ 39.9 µg/mL)	1.44					
Cc1nc(N)sc1C	6.3										
Cc1nc2c(OCc3ccccc3)cccn2c1CC#N	5.6										
O=C(Cc1ccc(Cl)c(C(F)(F)F)c1)Nc1cccc2c(=O)n(CCO)ccc12		32	< 3	11			0.072	0.0097			
O=C(NCC1(O)CCCCCC1)c1cc(-n2ncc(=O)[nH]c2=O)ccc1Cl		< 3	< 3	< 3		0.26	0.129	0.24			
Cn1c([S+]([O-])Cc2ccccn2)nc2ccccc21 (stereo not drawn)	2.6										
CC(C)NCC(O)COc1ccc(CCOCC2CC2)cc1 (stereo not drawn) [BETAXOLOL]		< 3		12			0.409	0.725	< 3		
CCC(=O)N[C@H]1CC[C@@H](C(=O)N(C)c2ccc(-c3nc4ccccc4o3)cc2)C1 [BI 99179]		4.57		7.59	45.7 (≈ 17.9 µg/mL)	3.4			11		
C[C@]12CCC(=O)C=C1C=C[C@@H]1[C@@H]2CC[C@@]2(C)[C@H]1CC[C@@]21CCC(=O)O1 [CANRENONE]		6.61	14.4	45.7		3.2	0.0383	0.0594			
Cc1ccc(C)c(OCCCC(C)(C)C(=O)O)c1 [GEMFIBROZIL]		66.1		> 150		0.72	0.0153	0.0023	29.5		
O=C(c1ccc(F)cc1)C1CCN(CCn2c(=O)[nH]c3ccccc3c2=O)CC1 [KETANSERIN]		30.2		24.6			0.0064	0.0968			
O=C1Nc2ccc(Cl)cc2C(c2ccccc2Cl)=NC1O (stereo not drawn) [LORAZEPAM]		4.57	7.94	17.4	178 (≈ 57.1 µg/mL)					0.072	
Cc1c(C)c2c(c(C)c1O)CCC(C)(COc1ccc(CC3SC(=O)NC3=O)cc1)O2 (stereo not drawn) [TROGLITAZONE]		28.2	49	> 150				0.0009			
